Results: patent US10357479B2, “Angiotensin II receptor antagonist for the prevention or treatment of systemic diseases in cats” (priority 2006, dated 2019)
“And” between values parts separate entries of the source, which are not always exact repeats. Identical values can stand only once. “Also recorded” adds a separate entry of the source.

Key:
[1] = Safety after repeated oral administration over four weeks (Example 3); assay type: in vivo, cats
Description: The animals were allocated to 3 groups, 4 animals per group. […] The bottles with the test/control article looked identical with the exception of the animal no. in order to achieve blinding.
Blood samples for haematology and clinical chemistry were collected from the animals on days-1 (i.e. prior to the first treatment) and again on days 3, 7, 14, 28. Body weights were measured weekly and electrocardiography recording were made on days-1, 14, 21 and 28. A detailed physical examination including determination of rectal temperature and respiratory rate was carried out on days-1, 7, 14, 22 and 28. Systolic blood pressure (once daily) and heart rate (twice daily) were determined five days per week beginning prior to treatment until necropsy. The palatability of the administered article was assessed at various time points throughout treatment using a scoring system. On day 28 of the study, all animals were subjected to necropsy and stomach and kidneys were examined histopathologically. Relevant parameters were analysed using appropriate statistical procedures.

[2] = Pharmacokinetics and absolute bioavailability in plasma after single oral or intravenous administration (Example 1); conditions: for AUC(0-inf) / half-life / t max / V/f or V / t ½ / AUC 0 → ∞: single dose 1 mg/kg, mean; for half-life: t ½
Description: Four clinically healthy male and female domestic short hair cats (HsdCpb: CADS) with a body weight range of 2.6-4.2 kg were used in this study. The animals were randomly allocated to 2 groups, 2 animals per group.
Blood samples were drawn at 0 h (i.e. prior to treatment), 5 (after i. v. injection only), 15, 30 and 60 min as well as 2, 4, 8, 24, 72 and 96 h after each treatment. Clinical observations were also conducted at these time points. Plasma samples were sent to the analytical laboratory and analysed there using a validated method. The plasma levels measured in each animal were subjected to various pharmacokinetic calculations.

[3] = test system: angiotensin II receptor 1 (AT-1); assay: Angiotensin II induced increase in diastolic blood pressure in laboratory cats after oral dosing; assay type: in vivo; conditions: approximately 24 hours after the last oral dosing, target dose vs Placebo
[4] = human patients, 160 mg daily; cited from earlier work
[5] = test system: angiotensin II receptor 1 (AT-1); assay: Escalating intravenous dose: blood pressure response of anaesthetised cats after angiotensin II (Example 2); assay type: in vivo
Description: Four clinically healthy adult male and female domestic short hair cats (HsdCpb: CADS) with a body weight range of 2.5-3.5 kg were used in this study. The animals were anaesthetised with sodium pentobarbital and anaesthesia was sustained by continuous infusion of diluted anaesthetic. A catheter was inserted into a carotid artery and connected to a pressure transducer for registration of the arterial pressure. […] The systolic and diastolic blood pressure [mmHg] in the carotid artery were recorded and analysed at discrete intervals as described below.
At first, the diastolic blood pressure was registered 6 times every 5 minutes. The mean of these 6 measurements were set as the baseline blood pressure. Then two bolus injections of A2 were administered at a dose of 0.1 μg/kg in an interval of 10 min. The maximum increase in diastolic blood pressure obtained from the second A2-bolus relative to the baseline blood pressure was taken as the control angiotensin II-blood pressure response (i.e. reference value).
Thirty minutes later the diastolic blood pressure was recorded, immediately followed by bolus injection of A2 at a dose of 0.1 μg/kg and the maximum increase in diastolic blood pressure was obtained. This procedure was to be repeated accordingly until the intended endpoint of the experiment (i.e. an A2-pressure response ≤10% of the control A2-pressure response corresponding to ≥90% inhibition) was reached. […] At the end of the experiment, the anaesthetised animals were euthanized with an overdose of sodium pentobarbital.

[6] = oral once daily days 0 to 27, 1 and 3 mg/kg
[7] = both, domestic short hair (HsdCpb: CADS), plasma, po, 1 mg/kg

SMILES: CCCc1nc2c(C)cc(-c3nc4ccccc4n3C)cc2n1Cc1ccc(-c2ccccc2C(=O)O)cc1 [telmisartan, 4′-[2-n-propyl-4-methyl-6-(1-methylbenzimidazol-2-yl)-benzimidazol-1-ylmethyl]-biphenyl-2-carboxylic acid]
- histopathology of stomach and kidneys ([1]; day 28): no histopathological findings considered to be associated with the treatment
- necropsy findings ([1]; day 28): No animal showed any specific finding
- systolic blood pressure, changes from baseline vs controls ([1]; groups II (1 mg/kg) and III (3 mg/kg)): did not reveal significant differences
- systolic blood pressure vs control group I ([1]; groups II (1 mg/kg) and III (3 mg/kg), single occasions after initiation of treatment): significantly lower
- systolic blood pressure, course of the mean values over time ([1]; groups II and III vs group I, from day 20 onwards / towards the end of the study): tendency of a slight reduction
- body weights, rectal temperature, respiratory and heart rates [1, 6]: No significant differences
- clinical findings [1, 6]: No clinical findings clearly attributable to the treatment
- urinalysis [1, 6]: not provide evidence of a treatment effect
- physical and ECG examinations ([1]; oral once daily days 0 to 27, 1 and 3 mg/kg, all time points): did not reveal treatment-related findings
- haematological and clinical chemistry parameters including differential leukocyte count ([1]; oral once daily days 0 to 27, 1 and 3 mg/kg, vs concurrent controls): No treatment-related differences
- plasma concentrations at 24 h ([2]; 24 h after both routes, orally and intravenously): No quantifiable plasma concentrations
- time until which mean plasma concentrations increased ([2]; after oral administration): 15 to 30 min
- bioavailability ([2]; both, domestic short hair (HsdCpb: CADS), cat, plasma, po, 1 mg/kg, absolute bioavailability after oral administration, oral 1 mg/kg): 33%
- MRT ([2]; both, domestic short hair (HsdCpb: CADS), plasma, iv, 1 mg/kg): 0.789 h
- AUC(0-inf) ([2]; both, domestic short hair (HsdCpb: CADS), plasma, iv, 1 mg/kg, i.v., first AUC line (r5)): 385 ng·h/mL
- AUC(0-inf) ([2]; both, domestic short hair (HsdCpb: CADS), plasma, iv, 1 mg/kg, i.v., second AUC line (r7)): 376 ng·h/mL
- half-life ([2]; both, domestic short hair (HsdCpb: CADS), plasma, iv, 1 mg/kg, i.v.): 2.25 h
- CL/F [2, 7]: 172 mL/min/kg
- Cmax [2, 7]: 138 ng/mL
- MRT [2, 7]: 1.97 h
- AUC(0-inf) ([2]; both, domestic short hair (HsdCpb: CADS), plasma, po, 1 mg/kg, oral, first AUC line (r5)): 150 ng·h/mL
- AUC(0-inf) ([2]; both, domestic short hair (HsdCpb: CADS), plasma, po, 1 mg/kg, oral, second AUC line (r7)): 139 ng·h/mL
- bioavailability ([2]; both, domestic short hair (HsdCpb: CADS), plasma, po, 1 mg/kg, absolute bioavailability after oral administration, oral 1 mg/kg): 33.6%
- bioavailability ([2]; both, domestic short hair (HsdCpb: CADS), plasma, po, 1 mg/kg, absolute bioavailability, point estimate, for AUC 0→t, oral vs i.v. 1 mg/kg): 31.6%
- bioavailability ([2]; both, domestic short hair (HsdCpb: CADS), plasma, po, 1 mg/kg, absolute bioavailability, point estimate, for AUC 0→∞, oral vs i.v. 1 mg/kg): 33.6%
- t max ([2]; both, domestic short hair (HsdCpb: CADS), plasma, po, 1 mg/kg, t max, oral): 0.44 h
- half-life ([2]; both, domestic short hair (HsdCpb: CADS), plasma, po, 1 mg/kg, oral): 2.17 h
- bioavailability ([2]; domestic short hair (HsdCpb: CADS), plasma, po, 1 mg/kg, bioavailability, individual data, animal no. 101, for AUC 0→∞): 11.6%
- bioavailability ([2]; domestic short hair (HsdCpb: CADS), plasma, po, 1 mg/kg, bioavailability, individual data, the other animals, for AUC 0→∞): 38.7 to 58.2%
- clinical signs ([2]; entire course of the study, single oral or i.v. 1 mg/kg): No specific clinical signs
- V/f or V ([2]; i.v., 1 mg/kg): 8.8 L/kg and 8.856 L/kg
- t ½ ([2]; i.v., 1 mg/kg): 2.252 h
- AUC 0 → ∞ ([2]; i.v., first AUC line (r5), 1 mg/kg): 384.751 ng·h/mL
- tolerability ([2]; in vivo, 1 mg/kg): well tolerated
- V/f or V ([2]; oral, 1 mg/kg): 20.4 L/kg and 20.453 L/kg
- t max ([2]; oral, 1 mg/kg): 0.438 h
- t ½ ([2]; oral, 1 mg/kg): 2.169 h
- AUC 0 → ∞ ([2]; oral, first AUC line (r5), 1 mg/kg): 150.426 ng·h/mL
- diastolic blood pressure responses to increasing intravenous doses of Angiotensin II [3]: significantly reduced
- plasma level (Cmax±SD) [4]: about 2800±2400 ng/ml
- effect of further dose escalation ([5]; all 4 animals): did not produce markedly higher effects; also recorded: did not produce an appropriate dose response relationship
- maximal inhibition of the blood pressure increase relative to the control angiotensin II-blood pressure response ([5]; animal no. 101, reached at cumulative i.v. dose of 0.05 mg/kg): 50%
- inhibition of the angiotensin II diastolic blood pressure response ([5]; animal no. 102, after the 1st i.v. dose of 0.04 mg/kg): 73%
- inhibition of the angiotensin II diastolic blood pressure response ([5]; animal no. 151, cumulative i.v. dose of 0.04 mg/kg): 73%
- inhibition of the angiotensin II diastolic blood pressure response ([5]; animal no. 152, after the 1st i.v. dose of 0.02 mg/kg): 73%
- maximal inhibition of the blood pressure increase relative to the control angiotensin II-blood pressure response ([5]; animal nos. 102, 151, 152, final cumulative i.v. dose 0.34-0.4 mg/kg): 80-95%
- inhibition of the angiotensin II diastolic blood pressure response ([5]; cumulative i.v. dose of 0.04 mg/kg, 3 of 4 animals): 73%
- inhibition of the blood pressure response ([5]; doses of less than 0.05 mg per kg body weight, majority of the tested cats): about 75%
- effect on diastolic blood pressure increase after angiotensin II ([5]; escalating intravenous doses, anaesthetised cats): led to an inhibition of the diastolic blood pressure increase
- endpoint of a 90% inhibition of the A2-pressure response ([5]; several consecutive escalating i.v. doses): could not be reached in 3 of 4 animals
